Assay [1] relates to AsPC-1 cells containing homozygous KRAS-G12D activating mutation. Kind of assay: Cellular phospho-ERK assay (Examples 1a-106). The assay is classed as cell-based. As to conditions: AsPC-1 cells, 2 hours, ratio of p-Erk vs total Erk, read-out: IC50 (nM) pERK (Cell). The text has this:
5% CO? overnight. […] Assay plates were read on a EnVision Multimode Plate Reader (PerkinElmer) and the ratio of p-Erk vs total Erk in each well was used as the final readout.

For assay [2], the target named is KRAS G12D / Ras binding domain of C-RAF (Homo sapiens (Human), UniProt P01116, G12D). Briefly: RAS:RAF-RBD binding assay (cRaf), TR-FRET. Particulars: biotinylated KRAS G12D, GST-C-RAF RBD. Background: Time-resolved FRET reads energy transfer from a long-lived donor to a nearby acceptor.
Chain of KRAS G12D / Ras binding domain of C-RAF (P01116 other isoform, or with tags, fused parts or gaps G12D (already in the parent)): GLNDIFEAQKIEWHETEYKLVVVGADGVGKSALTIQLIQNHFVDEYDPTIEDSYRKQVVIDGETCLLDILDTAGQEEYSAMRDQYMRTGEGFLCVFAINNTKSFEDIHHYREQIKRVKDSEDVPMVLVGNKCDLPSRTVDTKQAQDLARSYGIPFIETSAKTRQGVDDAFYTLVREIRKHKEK
Protocol: Compounds are added to KRAS and then after a 30-minute incubation time the RAF-RBD and detection antibodies are added. Small molecule inhibitors that block the interaction of c-RAF-RBD prevent generation of a TR-FRET signal.
Biotinylated KRAS G12D protein is diluted to 20 nM in assay buffer (20 mM HEPES pH 7.5, 150 mM sodium chloride, 10 mM magnesium chloride, and 0.01% Tween20).
Each test compound (10 mM stock in DMSO) is diluted in DMSO to make a 10-point, 3-fold dilution series in a 384-well low dead volume microplate (Labcyte, catalog #LP-0200).
Each well of the assay plate receives 5 μL of Biotinylated KRAS G12D assay solution and is incubated at room temperature for 30 minutes. Each well then receives 5 μL of 100 nM GST-C-RAF RBD protein and a 1:100 dilution of both anti-GST-d2 (Cisbio catalog #61GSTDLA) and Streptavidin-Tb cryptate (Cisbio catalog #610SATLA) in assay buffer and the plate is mixed and briefly centrifuged followed by a 60 minute incubation at room temperature.
The apparent effect as a function of compound concentration is fit to a four-parameter logistic equation.
Assay [3] has as its target KRAS protein containing G12D mutation (Homo sapiens (Human), UniProt P01116, G12D). Briefly: SOS-catalyzed nucleotide exchange assay (GNE), TR-FRET. The assay is classed as biochemical. As to conditions: biotinylated KRAS G12D, SOS and GTP, 60-minute incubation. As for the experimental part:
Compounds are added to this complex and then after a 60-minute incubation time the mixture is treated with SOS and unlabeled GTP. Small molecule inhibitors stabilize the Bodipy-GDP complex whereas the untreated protein rapidly exchanges Bodipy-GDP for unlabeled GTP resulting in reduced TR-FRET signal.
This solution is referred to as biotinylated KRAS G12D stock solution.

Molecules are shown by their SMILES. Where two headings read alike, the source gives them in different places.

Chain of KRAS protein containing G12D mutation (P01116 other isoform, or with tags, fused parts or gaps G12D (already in the parent)): as above

With `CN(C)CC1(COc2nc(N3C[C@H]4CC[C@@](C)(C3)N4)c3cc(F)c(-c4cc(O)cc5ccccc45)c(F)c3n2)CC1` [Example 21, 4-(2-((1-((dimethyl-amino)methyl)cyclo-propyl)methoxy)-6,8-difluoro-4-((1S,5R)-1-methyl-3,8-diazabicy-clo[3.2.1]octan-3-yl)quinazolin-7-yl)naphthalen-2-ol], the IC50 was found to be 636 nM in assay [1] (Homo sapiens, ASPC1, 2 h); 1980 nM in assay [2] (IC50 (nM) (cRaf)); 14.4 nM in assay [3].
For `COC1CC2CN(c3nc(OCC4(CN(C)C)CC4)nc4c(F)c(-c5cc(O)cc6ccccc56)c(F)cc34)CC1N2` [Example 24, 4-(2-((1-((dimethylamino)meth-yl)cyclopropyl)meth-oxy)-6,8-difluoro-4-(6-methoxy-3,8-di-azabicyclo[3.2.1]octan-3-yl)quinazolin-7-yl)naphthalen-2-olR,R,], the IC50 in assay [1] is 7110 nM; in assay [2] (read-out: IC50 (nM) (cRaf)), 10800 nM; in assay [3], 280 nM.
For the compound `COC1CC2CN(c3nc(OCC4(CN(C)C)CC4)nc4c(F)c(-c5cc(O)cc6ccccc56)c(F)cc34)CC1N2` (stereo not drawn) [Example 25, 4-(2-((1-((dimethyl-amino)methyl)cyclo-propyl)methoxy)-6,8-difluoro-4-(6-methoxy-3,8-diazabicyclo[3.2.1]oc-tan-3-yl)quinazolin-7-yl)naphthalen-2-ol], the IC50 in assay [1] (Homo sapiens, ASPC1, 2 h) was 7070 nM; in assay [2] (IC50 (nM) (cRaf)) it was 20300 nM; in assay [3], 454 nM.
For the compound `COC1CC2CN(c3nc(OCC4(CN(C)C)CC4)nc4c(F)c(-c5cc(O)cc6ccccc56)c(Cl)cc34)CC1N2` [Example 26, 4-(6-chloro-2-((1-((dimethylamino)meth-yl)cyclo-propyl)methoxy)-8-fluoro-4-(R,R,6-methoxy-3,8-diazabi-cyclo[3.2.1]octan-3-yl)quinazolin-7-yl)naphthalen-2-ol], the IC50 in assay [1] (Homo sapiens, ASPC1, 2 h) is 10400 nM; in assay [2] (IC50 (nM) (cRaf)) it was 11800 nM; in assay [3], 358 nM.
In the same order, the values of `CN(C)CC1(COc2nc(N3CC4(C)CCC(C)(C3)N4)c3cc(F)c(-c4cc(O)cc5ccccc45)c(F)c3n2)CC1` [Example 32, 4-(4-(1,5-dimethyl-3,8-diazabicy-clo[3.2.1]octan-3-yl)-2-((1-((dimethyl-amino)methyl)cyclo-propyl)methoxy)-6,8-difluoroquinazolin-7-yl)naphthalen-2-ol] are 2260 nM, 1430 nM and 64.2 nM.
For `CCC12CCC(CN(c3nc(OCC4(CN(C)C)CC4)nc4c(F)c(-c5cc(O)cc6ccccc56)c(F)cc34)C1)N2` (stereo not drawn) [Example 33, 4-(2-((1-((dimethylamino)meth-yl)cyclopro-pyl)methoxy)-4-(1-ethyl-3,8-diazabicy-clo[3.2.1]octan-3-yl)-6,8-difluoroquinazolin-7-yl)naphthalen-2-ol] the same measures were 3450 nM, 5070 nM and 88.5 nM.
In the case of `CN(C)CC1(COc2nc(N3CC4CCC(F)(C3)N4)c3cc(Cl)c(-c4cc(O)cc5ccccc45)c(F)c3n2)CC1` (stereo not drawn) [Example 34, 4-(6-chloro-2-((1-((dimethylamino)meth-yl)cyclopropyl)meth-oxy)-8-fluoro-4-(1-fluoro-3,8-diaza-bicyclo[3.2.1]octan-3-yl)quinaozlin-7-yl)naphthalen-2-ol], the IC50 in assay [1] (Homo sapiens, ASPC1, 2 h) amounted to 11500 nM; in assay [2] (IC50 (nM) (cRaf)), 38300 nM; in assay [3], 2560 nM.
For `CN(C)CC1(COc2nc(N3CC4CC[C@@](C)(C3)N4)c3cc(Cl)c(-c4cc(O)cc5ccccc45)c(F)c3n2)CC1` [Example 35, 4-(6-chloro-2-((1-((dimethylamino)meth-yl)cyclopro-pyl)methoxy)-8-fluoro-4-((1S,5R)-1-methyl-3,8-diaza-bicyclo[3.2.1]octan-3-yl)quinazolin-7-yl)naphthalen-2-ol], the IC50 in assay [1] (Homo sapiens, ASPC1, 2 h) is 2260 nM; in assay [2] (IC50 (nM) (cRaf)), 1890 nM; in assay [3] it was 27.3 nM.

One may read the IC50 as the concentration that gives 50% inhibition.
